This note sets out measurements from patent US12303509B2, “Compounds for the treatment of BRAF-associated diseases and disorders” (Pfizer Inc., priority 2020, dated 2025).

What is called efflux ratio is the permeability from basolateral to apical divided by that in the opposite direction, in the common usage. As a reminder, the Papp is a coefficient for how fast a substance crosses the barrier. Low readings indicate poor permeation, high ones ready permeation. For orientation: pIC50 means −log10 of the IC50, conventionally taken in molar units.

Each structure is given as a SMILES string. pIC50: −log10 of the molar value. Counter-ions that a name gives are not always drawn.

The target of one data set is P-gp (MDR1) (Homo sapiens (Human), UniProt P08183). Kind of data set: MDR1 LLC-PK1 permeability assay: efflux ratio. Format: in vitro ADME. Conditions: pig. The source says:
(§1) Final organic concentration in the assay was 1%.

A further data set has as its target BCRP (Homo sapiens (Human), UniProt Q9UNQ0). Kind of data set: BCRP MDCKII permeability assay: efflux ratio. The class given is in vitro ADME. Conditions: dog.
Data set [1] in a line: MDR1 LLC-PK1 and BCRP MDCKII permeability assay: permeability coefficient (Papp). The class given is in vitro ADME.
From the text: as §1

Data set [2] concerns the target full-length FLAG-tagged B-Raf(V600E) (Homo sapiens (Human), UniProt P15056, V600E). Kind of data set: BRAF V600E enzyme assay (TR-FRET competitive displacement). The class given is binding. Conditions: averaged IC50; TR-FRET tracer displacement, 60 min. In a few lines: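 TR-FRET tracer competition: compound (top dose 10 μM, 3-fold, 11 points) incubated 60 min at ambient temperature with FLAG-tagged full-length B-Raf(V600E) (5 nM), Eu anti-FLAG cryptate (0.5 nM) and tracer (50 nM), pH 7.4 HEPES/MgCl2 buffer. 665/615 ratio converted to percent of control; IC50 where fitted curve crosses 50 POC.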

Another data set relates to A375 cells. Kind of data set: Cellular phospho-ERK inhibition assay in A375 cells. Format: cell-based. As to conditions: Homo sapiens, A-375, A375 cells (head prints A357), 2 hours treatment, read-out: A357 cell IC50. In a few lines:
(§2)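 In Cell Western detection of phospho-ERK1/2 (Thr202/Tyr204) over GAPDH after 2 h compound exposure (66 pM to 10 μM, 9 points, 0.25% DMSO) of A375 cells in DMEM or H1755 cells in RPMI, both with 10% FBS. Percent of control set by DMSO and 10 μM binimetinib; 4-parameter IC50.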

For the next data set, the system named is H1755 cells. Nature of the data set: Cellular phospho-ERK inhibition assay in H1755 cells. The class given is cell-based. As to conditions: Homo sapiens, NCI-H1755, 2 hours treatment, read-out: H1755 Cell IC50. The essentials:
as §2

Sequence of full-length FLAG-tagged B-Raf(V600E) (P15056 whole entry V600E): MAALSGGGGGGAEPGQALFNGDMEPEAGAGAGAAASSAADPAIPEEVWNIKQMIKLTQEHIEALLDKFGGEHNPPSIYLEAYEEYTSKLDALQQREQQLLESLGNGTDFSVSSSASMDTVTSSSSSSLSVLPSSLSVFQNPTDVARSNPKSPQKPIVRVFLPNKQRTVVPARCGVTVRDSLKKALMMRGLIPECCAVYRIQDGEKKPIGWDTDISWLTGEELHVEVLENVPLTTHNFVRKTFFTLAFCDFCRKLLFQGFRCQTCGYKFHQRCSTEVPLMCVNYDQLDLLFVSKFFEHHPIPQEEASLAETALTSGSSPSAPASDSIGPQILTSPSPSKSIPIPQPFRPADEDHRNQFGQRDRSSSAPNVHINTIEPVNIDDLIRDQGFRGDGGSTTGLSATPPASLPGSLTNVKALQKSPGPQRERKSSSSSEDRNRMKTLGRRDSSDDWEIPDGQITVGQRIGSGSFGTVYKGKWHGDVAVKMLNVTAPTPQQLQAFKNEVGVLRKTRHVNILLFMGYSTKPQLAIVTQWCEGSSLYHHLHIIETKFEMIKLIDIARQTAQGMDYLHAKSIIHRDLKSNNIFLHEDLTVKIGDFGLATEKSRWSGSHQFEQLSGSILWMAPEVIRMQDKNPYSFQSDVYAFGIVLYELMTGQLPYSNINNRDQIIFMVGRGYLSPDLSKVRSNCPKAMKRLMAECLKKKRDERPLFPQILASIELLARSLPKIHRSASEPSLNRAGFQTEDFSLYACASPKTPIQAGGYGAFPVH
Sequence of BCRP (Q9UNQ0 whole entry): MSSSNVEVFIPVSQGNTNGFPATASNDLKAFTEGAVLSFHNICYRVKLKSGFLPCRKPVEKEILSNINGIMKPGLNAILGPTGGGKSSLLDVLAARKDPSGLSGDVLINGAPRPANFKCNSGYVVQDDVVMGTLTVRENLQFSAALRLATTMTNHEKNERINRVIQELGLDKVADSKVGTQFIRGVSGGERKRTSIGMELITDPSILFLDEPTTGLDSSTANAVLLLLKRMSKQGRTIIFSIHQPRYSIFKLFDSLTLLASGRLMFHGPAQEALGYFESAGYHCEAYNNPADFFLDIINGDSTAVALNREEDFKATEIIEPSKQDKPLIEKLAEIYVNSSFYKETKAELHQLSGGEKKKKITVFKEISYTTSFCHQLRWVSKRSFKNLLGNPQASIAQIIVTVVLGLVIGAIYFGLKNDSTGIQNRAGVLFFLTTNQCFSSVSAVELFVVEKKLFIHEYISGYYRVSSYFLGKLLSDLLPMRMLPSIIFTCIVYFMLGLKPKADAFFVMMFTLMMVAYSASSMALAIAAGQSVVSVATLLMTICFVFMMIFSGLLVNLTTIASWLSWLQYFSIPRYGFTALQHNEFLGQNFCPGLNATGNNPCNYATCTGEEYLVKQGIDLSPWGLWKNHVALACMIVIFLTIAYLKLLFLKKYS
Sequence of P-gp (MDR1) (P08183 whole entry, species assumed): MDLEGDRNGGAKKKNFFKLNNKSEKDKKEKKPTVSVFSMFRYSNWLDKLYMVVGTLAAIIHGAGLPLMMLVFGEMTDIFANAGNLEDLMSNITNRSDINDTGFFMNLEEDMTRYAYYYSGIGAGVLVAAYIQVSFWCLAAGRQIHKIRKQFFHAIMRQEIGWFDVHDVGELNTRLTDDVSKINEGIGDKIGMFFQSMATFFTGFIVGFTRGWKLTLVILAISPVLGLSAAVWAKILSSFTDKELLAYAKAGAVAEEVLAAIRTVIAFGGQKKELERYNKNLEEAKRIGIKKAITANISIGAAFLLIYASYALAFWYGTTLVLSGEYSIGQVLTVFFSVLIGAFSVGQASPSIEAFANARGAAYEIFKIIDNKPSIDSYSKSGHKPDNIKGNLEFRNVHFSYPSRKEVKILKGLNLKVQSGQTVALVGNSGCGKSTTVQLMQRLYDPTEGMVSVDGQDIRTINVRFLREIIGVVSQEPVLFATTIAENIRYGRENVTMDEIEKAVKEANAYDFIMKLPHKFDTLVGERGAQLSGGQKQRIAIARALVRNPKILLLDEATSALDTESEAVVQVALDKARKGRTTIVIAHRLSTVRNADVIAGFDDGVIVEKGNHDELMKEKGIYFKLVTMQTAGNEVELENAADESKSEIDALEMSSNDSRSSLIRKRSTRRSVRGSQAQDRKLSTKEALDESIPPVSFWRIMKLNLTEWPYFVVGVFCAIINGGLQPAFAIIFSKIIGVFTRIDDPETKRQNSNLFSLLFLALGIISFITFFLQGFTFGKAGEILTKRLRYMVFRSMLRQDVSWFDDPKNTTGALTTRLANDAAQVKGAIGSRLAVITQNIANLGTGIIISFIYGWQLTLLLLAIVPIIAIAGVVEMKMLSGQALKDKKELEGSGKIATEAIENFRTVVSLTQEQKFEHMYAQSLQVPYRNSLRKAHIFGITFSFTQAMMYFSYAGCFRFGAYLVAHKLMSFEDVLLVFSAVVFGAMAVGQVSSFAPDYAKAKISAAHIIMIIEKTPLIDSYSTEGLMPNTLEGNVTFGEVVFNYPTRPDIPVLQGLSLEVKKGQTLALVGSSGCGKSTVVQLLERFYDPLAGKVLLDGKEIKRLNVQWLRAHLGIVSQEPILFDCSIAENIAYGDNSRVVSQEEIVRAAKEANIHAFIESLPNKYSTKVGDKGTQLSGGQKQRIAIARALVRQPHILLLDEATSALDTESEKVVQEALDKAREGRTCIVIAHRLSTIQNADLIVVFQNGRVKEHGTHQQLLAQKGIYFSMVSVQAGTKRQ

As for `CO[C@@H]1CN(S(=O)(=O)Nc2ccc(F)c(Nc3ccc4ncn(C)c(=O)c4c3Cl)c2Cl)C[C@@H]1F` (relative stereo) [Example 18, cis-N-(2-chloro-3-((5-chloro-3-methyl-4-oxo-3,4-dihydroquinazolin-6-yl)amino)-4-fluorophenyl)-3-fluoro-4-methoxypyrrolidine-1-sulfonamide], the efflux ratio at 2 h, 1 µM on P-gp (MDR1) was found to be 3; on BCRP, 4.9. For the same compound, in data set [1], the Papp at 2 h, 1 µM was 40 ×10⁻⁶ cm/s. The pIC50 was 8.40 in data set [2], 8.70 with A375 cells and 7.74 with H1755 cells.

As for `CO[C@@H]1CCN(S(=O)(=O)Nc2ccc(F)c(Nc3ccc4ncn(C)c(=O)c4c3C)c2Cl)C1` [Example 1, (R)-N-(2-chloro-3-((3,5-dimethyl-4-oxo-3,4-dihydroquinazolin-6-yl)amino)-4-fluorophenyl)-3-methoxypyrrolidine-1-sulfonamide], the efflux ratio at 2 h, 1 µM amounted to 1.7 on P-gp (MDR1) and 1.4 on BCRP. In data set [1], this compound showed a Papp at 2 h, 1 µM of 31 ×10⁻⁶ cm/s. The pIC50 was 7.22 in data set [2], 7.49 in the data set with A375 cells and 6.99 in the data set with H1755 cells.

Take `CCN(C)S(=O)(=O)Nc1ccc(F)c(Nc2ccc3ncn(C)c(=O)c3c2Cl)c1Cl` [Example 2]: the efflux ratio at 2 h, 1 µM worked out at 1.2 on P-gp (MDR1) and 1 on BCRP. The compound further displayed a Papp at 2 h, 1 µM in data set [1] of 31 ×10⁻⁶ cm/s. Besides, the pIC50 in data set [2] was 7.44; with A375 cells, 7.82; in the data set with H1755 cells it was 7.24.

`CN(C)S(=O)(=O)Nc1ccc(F)c(Nc2ccc3ncn(C)c(=O)c3c2Cl)c1Cl` [Example 3, N-(2-chloro-3-((5-chloro-3-methyl-4-oxo-3,4-dihydroquinazolin-6-yl)amino)-4-fluorophenyl)-(N,N-dimethyl)-sulfamide]: the efflux ratio at 2 h, 1 µM on P-gp (MDR1) was 1.3; on BCRP, 1.5. This compound also showed a Papp at 2 h, 1 µM in data set [1] of 33 ×10⁻⁶ cm/s. In addition, the pIC50 in data set [2] was 7.52; in the data set on A375 cells it was 7.80; in the data set with H1755 cells, 7.21.

Regarding `CCN(C)S(=O)(=O)Nc1ccc(F)c(Nc2ccc3ncn(C)c(=O)c3c2F)c1Cl` [Example 4, N-(2-chloro-4-fluoro-3-((5-fluoro-3-methyl-4-oxo-3,4-dihydroquinazolin-6-yl)amino)phenyl)-(N-ethyl-N-methyl)-sulfamide], the efflux ratio at 2 h, 1 µM is 1.6 at P-gp (MDR1) and 2.1 on BCRP. Besides, the Papp at 2 h, 1 µM in data set [1] was found to be 27 ×10⁻⁶ cm/s. Besides, the pIC50 in data set [2] was 7.49; in the data set with A375 cells, 7.72; with H1755 cells it was 7.10.

In the case of `CO[C@@H]1CCN(S(=O)(=O)Nc2ccc(F)c(Nc3ccc4ncn(C)c(=O)c4c3F)c2Cl)C1` [Example 5, (R)-N-(2-chloro-4-fluoro-3-((5-fluoro-3-methyl-4-oxo-3,4-dihydroquinazolin-6-yl)amino)phenyl)-3-methoxypyrrolidine-1-sulfonamide], the efflux ratio at 2 h, 1 µM was found to be 3.8 at P-gp (MDR1) and 3.4 at BCRP. The Papp at 2 h, 1 µM in data set [1] was 27 ×10⁻⁶ cm/s. Besides, the results for the pIC50 (in data set [2]; in the data set on A375 cells; in the data set with H1755 cells) were 7.85, 8.40 and 7.70, respectively.

As to `CO[C@@H]1CCN(S(=O)(=O)Nc2ccc(F)c(Nc3ccc4ncn(C)c(=O)c4c3Br)c2Cl)C1` [Example 8, (R)-N-(3-((5-bromo-3-methyl-4-oxo-3,4-dihydroquinazolin-6-yl)amino)-2-chloro-4-fluorophenyl)-3-methoxypyrrolidine-1-sulfonamide trifluoroacetate], the efflux ratio at 2 h, 1 µM on P-gp (MDR1) came to 2.5; on BCRP, 1.3. Besides, the Papp at 2 h, 1 µM in data set [1] worked out at 23 ×10⁻⁶ cm/s. For the same compound, the pIC50 in data set [2] was 8.00; with A375 cells it was 7.92; in the data set with H1755 cells, 7.59.

For `CO[C@@H]1CCN(S(=O)(=O)Nc2ccc(F)c(Oc3ccc4ncn(C)c(=O)c4c3C)c2Cl)C1` [Example 10, (R)-N-(2-chloro-3-((3,5-dimethyl-4-oxo-3,4-dihydroquinazolin-6-yl)oxy)-4-fluorophenyl)-3-methoxypyrrolidine-1-sulfonamide], the efflux ratio at 2 h, 1 µM came to 1.6 on P-gp (MDR1) and 0.7 on BCRP. In data set [1], this compound returned an apparent permeability (Papp) at 2 h, 1 µM of 27 ×10⁻⁶ cm/s. The values for the pIC50 (in data set [2]; with A375 cells; in the data set with H1755 cells) were 8.10, 7.92 and 7.08, respectively.

As to `Cn1cnc2ccc(Nc3c(F)ccc(NS(=O)(=O)N4CCCC4)c3Cl)c(Br)c2c1=O` [Example 11, N-(3-((5-bromo-3-methyl-4-oxo-3,4-dihydroquinazolin-6-yl)amino)-2-chloro-4-fluorophenyl)pyrrolidine-1-sulfonamide trifluoroacetate], the efflux ratio at 2 h, 1 µM on P-gp (MDR1) is 1.3; on BCRP it was 0.8. Besides, the Papp at 2 h, 1 µM in data set [1] is 28 ×10⁻⁶ cm/s. Moreover, the pIC50 in data set [2] is 8.15; with A375 cells, 7.77; in the data set with H1755 cells it was 7.12.

Turning to `Cn1cnc2ccc(Nc3c(F)ccc(NS(=O)(=O)N4C[C@@H](F)[C@@H](F)C4)c3Cl)c(F)c2c1=O` [Example 21, cis-N-(2-chloro-4-fluoro-3-((5-fluoro-3-methyl-4-oxo-3,4-dihydroquinazolin-6-yl)amino)phenyl)-3,4-difluoropyrrolidine-1-sulfonamide], the figures for the efflux ratio at 2 h, 1 µM at P-gp (MDR1) and on BCRP were 5.6 and 13, respectively. Also, in data set [1], the Papp at 2 h, 1 µM was found to be 26 ×10⁻⁶ cm/s. In addition, the pIC50 in data set [2] is 8.52; with A375 cells, 8.15; with H1755 cells, 7.48.

In the case of `Cn1cnc2ccc(Nc3c(F)ccc(NS(=O)(=O)N4C[C@@H](F)[C@@H](F)C4)c3Cl)c(Cl)c2c1=O` [Example 22, cis-N-(2-chloro-3-((5-chloro-3-methyl-4-oxo-3,4-dihydroquinazolin-6-yl)amino)-4-fluorophenyl)-3,4-difluoropyrrolidine-1-sulfonamide], the efflux ratio at 2 h, 1 µM was 2.7 at P-gp (MDR1) and 5.6 on BCRP. This compound displayed a Papp at 2 h, 1 µM in data set [1] of 34 ×10⁻⁶ cm/s. Also, the results for the pIC50 (in data set [2]; in the data set with A375 cells; in the data set with H1755 cells) were 8.52, 7.82 and 7.28, respectively.

Regarding `Cn1cnc2ccc(Nc3c(F)ccc(NS(=O)(=O)N4CCC(F)(F)C4)c3Cl)c(F)c2c1=O` [Example 23, N-(2-chloro-4-fluoro-3-((5-fluoro-3-methyl-4-oxo-3,4-dihydroquinazolin-6-yl)amino)phenyl)-3,3-difluoropyrrolidine-1-sulfonamide], the results for the efflux ratio at 2 h, 1 µM at P-gp (MDR1) and at BCRP were 3 and 17.6, respectively. In addition, the apparent permeability (Papp) at 2 h, 1 µM in data set [1] stood at 24 ×10⁻⁶ cm/s. The pIC50 is 8.52 in data set [2], 8.22 with A375 cells and 7.54 in the data set with H1755 cells.

In the case of `Cn1cnc2ccc(Nc3c(F)ccc(NS(=O)(=O)N4CC[C@@H](F)C4)c3Cl)c(Br)c2c1=O` [Example 24, (R)-N-(3-((5-bromo-3-methyl-4-oxo-3,4-dihydroquinazolin-6-yl)amino)-2-chloro-4-fluorophenyl)-3-fluoropyrrolidine-1-sulfonamide trifluoroacetate], the results for the efflux ratio at 2 h, 1 µM on P-gp (MDR1) and at BCRP were 2.5 and 2.6, respectively. Besides, the Papp at 2 h, 1 µM in data set [1] is 27 ×10⁻⁶ cm/s. The pIC50 is 8.70 in data set [2], 8.10 in the data set on A375 cells and 7.60 with H1755 cells.

On to `Cn1cnc2ccc(Nc3c(F)ccc(NS(=O)(=O)N4CCC(F)(F)C4)c3Cl)c(Cl)c2c1=O` [Example 25, N-(2-chloro-3-((5-chloro-3-methyl-4-oxo-3,4-dihydroquinazolin-6-yl)amino)-4-fluorophenyl)-3,3-difluoropyrrolidine-1-sulfonamide trifluoroacetate], for which the efflux ratio at 2 h, 1 µM stood at 1.6 at P-gp (MDR1) and 2.4 at BCRP. Besides, the Papp at 2 h, 1 µM in data set [1] came to 30 ×10⁻⁶ cm/s. The pIC50 in data set [2] is 8.70; in the data set with A375 cells it was 7.80; in the data set on H1755 cells, 7.03.

In the case of `Cn1cnc2ccc(Nc3c(F)ccc(NS(=O)(=O)N4CC[C@@H](OC(F)F)C4)c3Cl)c(F)c2c1=O` [Example 26, (R)-N-(2-chloro-4-fluoro-3-((5-fluoro-3-methyl-4-oxo-3,4-dihydroquinazolin-6-yl)amino)phenyl)-3-(difluoromethoxy)pyrrolidine-1-sulfonamide], the efflux ratio at 2 h, 1 µM worked out at 3.3 at P-gp (MDR1) and 3.7 at BCRP. The same compound yielded a Papp at 2 h, 1 µM in data set [1] of 31 ×10⁻⁶ cm/s. Also, the pIC50 is 8.22 in data set [2], 8.40 with A375 cells and 7.82 in the data set on H1755 cells.

As to `Cn1cnc2ccc(Nc3c(F)ccc(NS(=O)(=O)N4CC[C@H](F)C4)c3Cl)c(F)c2c1=O` [Example 27, (S)-N-(2-chloro-4-fluoro-3-((5-fluoro-3-methyl-4-oxo-3,4-dihydroquinazolin-6-yl)amino)phenyl)-3-fluoropyrrolidine-1-sulfonamide trifluoroacetate], the efflux ratio at 2 h, 1 µM was 2.7 at P-gp (MDR1) and 4.4 at BCRP. The Papp at 2 h, 1 µM in data set [1] amounted to 39 ×10⁻⁶ cm/s. Besides, the pIC50 is 8.30 in data set [2], 8.30 with A375 cells and 7.57 with H1755 cells.
